From ChEMBL document CHEMBL3991601, “The target landscape of clinical kinase drugs” (Science, 2017)
Active and inactive are the calls of the source. Cut-off read from the data, not from the text of the source, for most assays here: actives have a measured Kd and inactives only a lower limit.

Assays:
[1] = target: Protein-tyrosine kinase 6 (Homo sapiens, UniProt Q13882)
[2] = target: Mitotic checkpoint serine/threonine-protein kinase BUB1 (Homo sapiens, UniProt O43683)
[3] = target: T1, Dual specificity mitogen-activated protein kinase kinase 5 (Homo sapiens, UniProt Q13163)
T1 sequence (Q13163 whole entry): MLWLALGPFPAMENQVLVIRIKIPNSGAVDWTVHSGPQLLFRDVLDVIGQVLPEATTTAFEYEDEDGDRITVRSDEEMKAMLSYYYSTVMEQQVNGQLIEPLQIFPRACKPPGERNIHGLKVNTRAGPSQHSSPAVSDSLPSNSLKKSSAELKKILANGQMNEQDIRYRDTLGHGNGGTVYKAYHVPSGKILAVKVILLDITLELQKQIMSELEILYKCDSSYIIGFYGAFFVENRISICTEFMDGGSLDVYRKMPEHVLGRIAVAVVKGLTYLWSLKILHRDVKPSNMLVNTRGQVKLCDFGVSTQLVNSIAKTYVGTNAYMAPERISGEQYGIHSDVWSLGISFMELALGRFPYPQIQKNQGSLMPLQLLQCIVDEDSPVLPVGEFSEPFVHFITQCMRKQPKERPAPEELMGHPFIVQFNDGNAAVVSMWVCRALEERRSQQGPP

[4] = target: Putative heat shock protein HSP 90-beta 2 (Homo sapiens, UniProt Q58FF8)
Chain of Putative heat shock protein HSP 90-beta 2 (Q58FF8 whole entry): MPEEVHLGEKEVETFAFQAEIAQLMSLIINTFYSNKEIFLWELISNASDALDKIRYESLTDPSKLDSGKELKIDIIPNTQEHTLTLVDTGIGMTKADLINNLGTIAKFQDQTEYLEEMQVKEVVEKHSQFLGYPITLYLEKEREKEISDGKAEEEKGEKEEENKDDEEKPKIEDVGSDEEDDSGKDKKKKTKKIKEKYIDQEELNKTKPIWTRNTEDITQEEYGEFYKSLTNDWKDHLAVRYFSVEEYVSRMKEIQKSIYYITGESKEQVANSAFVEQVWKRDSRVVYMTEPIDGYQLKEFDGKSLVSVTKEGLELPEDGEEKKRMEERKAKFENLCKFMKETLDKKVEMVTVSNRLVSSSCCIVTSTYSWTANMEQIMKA

dCTP pyrophosphatase 1 = target: T2, dCTP pyrophosphatase 1 (Homo sapiens, UniProt Q9H773)
T2 sequence (Q9H773 whole entry): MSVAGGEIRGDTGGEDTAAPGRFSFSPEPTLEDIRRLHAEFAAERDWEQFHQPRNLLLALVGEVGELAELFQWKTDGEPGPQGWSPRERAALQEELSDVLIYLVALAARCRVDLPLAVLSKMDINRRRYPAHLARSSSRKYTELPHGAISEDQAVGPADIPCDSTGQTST

[5] = target: T3, ATP-dependent 6-phosphofructokinase, platelet type (Homo sapiens, UniProt Q01813)
T3 sequence (Q01813 whole entry): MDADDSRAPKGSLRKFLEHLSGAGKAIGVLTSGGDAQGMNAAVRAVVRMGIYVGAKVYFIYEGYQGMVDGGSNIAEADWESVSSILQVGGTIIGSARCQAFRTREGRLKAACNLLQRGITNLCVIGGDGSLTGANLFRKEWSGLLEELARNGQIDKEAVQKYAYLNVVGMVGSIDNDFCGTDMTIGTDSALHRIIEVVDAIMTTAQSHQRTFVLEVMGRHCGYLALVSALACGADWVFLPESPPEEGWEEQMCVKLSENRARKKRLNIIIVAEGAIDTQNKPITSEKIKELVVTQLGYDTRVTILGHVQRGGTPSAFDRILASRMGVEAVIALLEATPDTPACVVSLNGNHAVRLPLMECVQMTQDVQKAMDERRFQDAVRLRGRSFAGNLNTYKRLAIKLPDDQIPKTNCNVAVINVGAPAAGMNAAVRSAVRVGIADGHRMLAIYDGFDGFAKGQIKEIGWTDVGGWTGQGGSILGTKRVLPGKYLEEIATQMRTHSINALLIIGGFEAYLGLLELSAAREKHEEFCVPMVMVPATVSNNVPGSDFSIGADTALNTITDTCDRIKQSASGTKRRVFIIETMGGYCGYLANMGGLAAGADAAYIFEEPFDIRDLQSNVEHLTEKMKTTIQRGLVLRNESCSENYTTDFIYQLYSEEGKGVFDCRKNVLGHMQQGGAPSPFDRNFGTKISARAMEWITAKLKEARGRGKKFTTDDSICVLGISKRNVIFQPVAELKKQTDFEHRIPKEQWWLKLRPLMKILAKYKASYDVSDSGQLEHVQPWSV

[6] = target: T4, Serine/threonine-protein kinase TBK1 (Homo sapiens, UniProt Q9UHD2)
T4 sequence (Q9UHD2 whole entry): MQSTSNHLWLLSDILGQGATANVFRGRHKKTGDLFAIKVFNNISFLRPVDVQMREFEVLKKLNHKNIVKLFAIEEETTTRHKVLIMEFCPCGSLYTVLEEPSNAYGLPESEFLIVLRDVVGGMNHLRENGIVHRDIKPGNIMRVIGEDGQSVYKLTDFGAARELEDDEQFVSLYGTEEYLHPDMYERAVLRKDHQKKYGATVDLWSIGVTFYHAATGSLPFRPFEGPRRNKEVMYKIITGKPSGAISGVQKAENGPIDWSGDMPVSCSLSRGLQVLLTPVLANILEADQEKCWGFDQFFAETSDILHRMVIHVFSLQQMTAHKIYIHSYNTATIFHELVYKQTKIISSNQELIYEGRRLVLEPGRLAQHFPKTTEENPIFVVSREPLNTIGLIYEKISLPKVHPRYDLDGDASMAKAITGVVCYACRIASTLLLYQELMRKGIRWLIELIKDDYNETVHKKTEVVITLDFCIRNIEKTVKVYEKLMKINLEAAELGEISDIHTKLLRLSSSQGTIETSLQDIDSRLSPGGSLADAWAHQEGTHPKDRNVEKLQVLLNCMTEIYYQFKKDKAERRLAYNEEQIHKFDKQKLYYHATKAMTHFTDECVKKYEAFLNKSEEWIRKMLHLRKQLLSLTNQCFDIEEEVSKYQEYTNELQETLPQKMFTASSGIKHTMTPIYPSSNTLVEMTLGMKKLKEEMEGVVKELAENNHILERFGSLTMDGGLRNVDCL

[7] = target: T5, Mitogen-activated protein kinase 15 (Homo sapiens, UniProt Q8TD08)
T5 sequence (Q8TD08 whole entry): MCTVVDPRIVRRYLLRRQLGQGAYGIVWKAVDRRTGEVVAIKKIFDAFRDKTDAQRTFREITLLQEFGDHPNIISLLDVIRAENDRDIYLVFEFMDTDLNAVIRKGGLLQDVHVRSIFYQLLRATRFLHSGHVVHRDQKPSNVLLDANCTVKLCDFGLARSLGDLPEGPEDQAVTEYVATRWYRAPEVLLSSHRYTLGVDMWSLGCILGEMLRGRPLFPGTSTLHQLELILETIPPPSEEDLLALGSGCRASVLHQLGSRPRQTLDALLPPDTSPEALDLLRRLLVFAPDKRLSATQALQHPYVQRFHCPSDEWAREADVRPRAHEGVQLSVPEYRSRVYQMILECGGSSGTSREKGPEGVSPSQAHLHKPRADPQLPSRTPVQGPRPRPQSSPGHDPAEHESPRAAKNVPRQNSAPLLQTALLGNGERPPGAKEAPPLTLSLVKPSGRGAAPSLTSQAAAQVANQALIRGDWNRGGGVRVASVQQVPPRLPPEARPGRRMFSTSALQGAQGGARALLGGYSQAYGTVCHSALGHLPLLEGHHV
Note: in the data inactive means no Kd found up to 30 µM.

Chain of Mitotic checkpoint serine/threonine-protein kinase BUB1 (O43683 whole entry): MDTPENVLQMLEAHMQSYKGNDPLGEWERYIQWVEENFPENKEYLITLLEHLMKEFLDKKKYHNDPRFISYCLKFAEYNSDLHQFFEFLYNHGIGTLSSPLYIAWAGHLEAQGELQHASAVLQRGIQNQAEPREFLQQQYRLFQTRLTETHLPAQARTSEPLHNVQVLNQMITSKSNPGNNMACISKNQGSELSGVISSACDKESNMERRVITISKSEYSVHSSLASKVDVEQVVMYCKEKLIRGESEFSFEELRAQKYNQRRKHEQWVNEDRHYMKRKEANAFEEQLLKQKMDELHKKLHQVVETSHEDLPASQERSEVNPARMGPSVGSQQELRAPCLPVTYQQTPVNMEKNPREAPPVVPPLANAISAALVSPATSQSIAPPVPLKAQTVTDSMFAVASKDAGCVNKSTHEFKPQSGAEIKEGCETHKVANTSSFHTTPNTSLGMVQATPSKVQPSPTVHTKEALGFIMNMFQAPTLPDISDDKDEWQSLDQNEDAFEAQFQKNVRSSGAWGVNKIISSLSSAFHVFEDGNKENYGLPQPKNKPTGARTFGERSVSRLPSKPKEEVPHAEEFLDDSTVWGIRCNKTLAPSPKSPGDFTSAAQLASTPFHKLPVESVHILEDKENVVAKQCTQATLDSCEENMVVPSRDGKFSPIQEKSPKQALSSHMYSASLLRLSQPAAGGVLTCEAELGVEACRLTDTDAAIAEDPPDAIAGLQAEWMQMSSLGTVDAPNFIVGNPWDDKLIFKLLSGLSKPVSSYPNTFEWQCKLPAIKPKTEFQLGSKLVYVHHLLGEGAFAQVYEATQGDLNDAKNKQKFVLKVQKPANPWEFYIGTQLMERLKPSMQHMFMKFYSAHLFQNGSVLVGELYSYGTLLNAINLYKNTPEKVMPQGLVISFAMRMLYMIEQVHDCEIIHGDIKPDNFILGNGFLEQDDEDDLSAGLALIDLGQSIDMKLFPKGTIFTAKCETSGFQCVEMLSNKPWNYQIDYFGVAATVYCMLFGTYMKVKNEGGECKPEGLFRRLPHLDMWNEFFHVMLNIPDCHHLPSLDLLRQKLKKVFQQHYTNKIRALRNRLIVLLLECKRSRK
Chain of Protein-tyrosine kinase 6 (Q13882 whole entry): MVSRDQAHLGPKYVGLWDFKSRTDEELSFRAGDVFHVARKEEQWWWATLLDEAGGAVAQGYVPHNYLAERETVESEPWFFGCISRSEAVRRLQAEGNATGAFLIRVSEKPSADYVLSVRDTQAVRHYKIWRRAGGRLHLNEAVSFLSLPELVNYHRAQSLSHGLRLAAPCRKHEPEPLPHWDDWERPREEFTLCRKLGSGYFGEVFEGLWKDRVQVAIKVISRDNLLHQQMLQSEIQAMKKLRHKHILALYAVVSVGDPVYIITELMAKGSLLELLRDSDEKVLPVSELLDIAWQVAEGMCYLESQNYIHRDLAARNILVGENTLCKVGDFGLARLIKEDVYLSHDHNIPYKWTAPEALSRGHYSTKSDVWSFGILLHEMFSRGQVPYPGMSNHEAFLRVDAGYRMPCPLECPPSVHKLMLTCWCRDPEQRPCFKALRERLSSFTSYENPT

SMILES	Kd [1]	Kd [2]	Kd [3]	Kd [4]	Kd (dCTP pyrophosphatase 1)	Kd [5]	Kd [6]	Kd [7]
CN1CCN(c2nc(C3=C(c4c[nH]c5ccccc45)C(=O)NC3=O)c3ccccc3n2)CC1 [SOTRASTAURIN]	> 30 µM (inactive)	> 30 µM (inactive)	> 30 µM (inactive)	> 30 µM (inactive)	> 30 µM (inactive)	> 30 µM (inactive)	> 30 µM (inactive)	> 30 µM (inactive)
CNC(=O)c1cc(COc2nnc(Nc3ccc(Cl)cc3)c3ccoc23)ccn1 [TELATINIB]	> 30 µM (inactive)	> 30 µM (inactive)	> 30 µM (inactive)	> 30 µM (inactive)	> 30 µM (inactive)	> 30 µM (inactive)	> 30 µM (inactive)	> 30 µM (inactive)
COc1cc(F)c(F)c(Nc2ccc(I)cc2F)c1NS(=O)(=O)C1(C[C@H](O)CO)CC1 [REFAMETINIB]	> 30 µM (inactive)	> 30 µM (inactive)	> 30 µM (inactive)	> 30 µM (inactive)	> 30 µM (inactive)	> 30 µM (inactive)	> 30 µM (inactive)	> 30 µM (inactive)
COc1cccc2cc(-c3nc([C@H]4CC[C@H](C(=O)O)CC4)n4ncnc(N)c34)[nH]c12 [OSI-027]	> 30 µM (inactive)	> 30 µM (inactive)	4.91 µM (active)	> 30 µM (inactive)	> 30 µM (inactive)	> 30 µM (inactive)	> 30 µM (inactive)	> 30 µM (inactive)
CNC(=O)c1ccc(Nc2ncc(C(F)(F)F)c(NCc3nccnc3N(C)S(C)(=O)=O)n2)cc1 [DEFACTINIB]	> 30 µM (inactive)	> 30 µM (inactive)	> 30 µM (inactive)	> 30 µM (inactive)	> 30 µM (inactive)	> 30 µM (inactive)	> 30 µM (inactive)	> 30 µM (inactive)
Cc1ccc(C(=O)Nc2ccc(Oc3cc4cnn(C)c4cc3-c3cn[nH]c3)c(F)c2)c(=O)n1-c1ccc(F)cc1 [MERESTINIB]	> 30 µM (inactive)	> 30 µM (inactive)	> 30 µM (inactive)	> 30 µM (inactive)	> 30 µM (inactive)	> 30 µM (inactive)	> 30 µM (inactive)	> 30 µM (inactive)
CNC(=O)c1cccc(-c2ccc3c(N4CCOC[C@@H]4C)nc(N4CCOC[C@@H]4C)nc3n2)c1 [VISTUSERTIB]	> 30 µM (inactive)	> 30 µM (inactive)	> 30 µM (inactive)	> 30 µM (inactive)	> 30 µM (inactive)	0.983 µM (active)	> 30 µM (inactive)	> 30 µM (inactive)
c1cc(OCCN2CCCCC2)cc(-c2n[nH]c3ccc(-c4nc[nH]n4)cc23)c1 [CC-401]	> 30 µM (inactive)	> 30 µM (inactive)	> 30 µM (inactive)	> 30 µM (inactive)	> 30 µM (inactive)	> 30 µM (inactive)	> 30 µM (inactive)	> 30 µM (inactive)
C=CC(=O)Nc1cc(Nc2nccc(-c3cn(C)c4ccccc34)n2)c(OC)cc1N(C)CCN(C)C [OSIMERTINIB]	> 30 µM (inactive)	> 30 µM (inactive)	> 30 µM (inactive)	> 30 µM (inactive)	> 30 µM (inactive)	> 30 µM (inactive)	> 30 µM (inactive)	> 30 µM (inactive)
COc1cc(Nc2ncc(F)c(Nc3ccc4c(n3)N(COP(=O)(O)O)C(=O)C(C)(C)O4)n2)cc(OC)c1OC [FOSTAMATINIB]	> 30 µM (inactive)	> 30 µM (inactive)	> 30 µM (inactive)	> 30 µM (inactive)	> 30 µM (inactive)	> 30 µM (inactive)	> 30 µM (inactive)	> 30 µM (inactive)
CC(C)CC(=O)Nc1[nH]nc2c1CN(C(=O)C1CCN(C)CC1)C2(C)C [PHA-793887]	> 30 µM (inactive)	> 30 µM (inactive)	> 30 µM (inactive)	> 30 µM (inactive)	> 30 µM (inactive)	> 30 µM (inactive)	> 30 µM (inactive)	0.264 µM (active)
